# How the values were obtained:
# [1] = tested on: Malassezia furfur (ATCC 14521); assay: Kill Rate Test (KRT) in mDixon broth; assay type: cell-based
# Protocol: Experiments were conducted to investigate the efficacy of the composition of the present invention to inhibit the survival, growth, and proliferation of microorganisms in topical compositions. The test microorganism was Malassezia furfur. The Kill Rate Test (KRT) results are indicative of anti-fungal efficacy. Generally, the greater the inhibition of fungal growth in this test, the better the anti-fungal efficacy of the compound(s) tested. A flask containing mDixon broth medium (see Gueho, et al. Antoinie Leeuwenhoek (1996), no. 69, 337–55, which description is incorporated by reference herein) was inoculated with Malassezia furfur. Specific concentrations of active(s) were then added to the flask Samples were then withdrawn from the flask at specified time points, diluted in sterile water, and spread across the surface of a mDixon agar plate. […] The lower the CFU/ml count, the better activity the active(s) have against M. furfur. […] Experimental Procedure • 1. […] For Mg^2+, Ag^+, Mn ^2+, Bi^3+, and Na^+ Step 8 was repeated at the 24 and 48 hour time points.
# [2] = tested on: Malassezia furfur (ATCC 14521); assay: Minimum Inhibitory Concentration (MIC) in mDixon agar; assay type: cell-based; settings: for MIC (ppm of metal ion) Alone: M. furfur, 5 days 30°; for MIC (ppm of metal ion) +4 ppm ZPT: metal ion in combination with 4 ppm ZPT (sub-MIC); for MIC (ppm of metal ion) +0.5 ppm ZPT: metal ion in combination with 0.5 ppm ZPT (sub-MIC); for MIC (ppm of metal ion) +2 ppm ZPT: metal ion in combination with 2 ppm ZPT (sub-MIC)
# [3] = Table 2(b), 0.05% metal salt (with 10 ppm ZPT where labelled)
# [4] = Table 2(b), 0.5% metal salt (with 10 ppm ZPT where labelled)
# [5] = Table 2(a), 0.05% metal salt (with 10 ppm ZPT where labelled)
# [6] = Table 2(a), 0.5% metal salt (with 10 ppm ZPT where labelled)
structure (smiles),measurement,setting,value
O=S(=O)([O-])[O-].[Zn+2] [ZnSO4],"Plate Area Colonized, 0 Hours",[1]; [3],2.12E+07 mm2
same,"Plate Area Colonized, 4 Hours",[1]; [3],8.14E+07 mm2
same,"Plate Area Colonized, 24 Hours",[1]; [3],7.22E+07 mm2
same,"Plate Area Colonized, 48 Hours",[1]; [3],3.44E+08 mm2
same,"Plate Area Colonized, 0 Hours",[1]; [4],2.12E+07 mm2
same,"Plate Area Colonized, 4 Hours",[1]; [4],2.21E+07 mm2
same,"Plate Area Colonized, 24 Hours",[1]; [4],2.69E+06 mm2
same,"Plate Area Colonized, 48 Hours",[1]; [4],1.86E+05 mm2
O=S(=O)([O-])[O-].[Cu+2] [CuSO4],"Plate Area Colonized, 0 Hours",[1]; [3],2.12E+07 mm2
same,"Plate Area Colonized, 4 Hours",[1]; [3],9.49E+07 mm2
same,"Plate Area Colonized, 24 Hours",[1]; [3],1.81E+08 mm2
same,"Plate Area Colonized, 48 Hours",[1]; [3],3.32E+08 mm2
same,"Plate Area Colonized, 0 Hours",[1]; [4],2.12E+07 mm2
same,"Plate Area Colonized, 4 Hours",[1]; [4],1.00E+00 mm2
same,"Plate Area Colonized, 24 Hours",[1]; [4],1.00E+00 mm2
same,"Plate Area Colonized, 48 Hours",[1]; [4],1.00E+00 mm2
O=S(=O)([O-])[O-].[Mn+2] [MnSO4],"Plate Area Colonized, 0 Hours",[1]; [5],3.97E+06 mm2
same,"Plate Area Colonized, 24 Hours",[1]; [5],1.97E+07 mm2
same,"Plate Area Colonized, 48 Hours",[1]; [5],5.91E+06 mm2
same,"Plate Area Colonized, 0 Hours",[1]; [6],3.97E+06 mm2
same,"Plate Area Colonized, 24 Hours",[1]; [6],1.16E+05 mm2
same,"Plate Area Colonized, 48 Hours",[1]; [6],2.35E+02 mm2
[Hg+2] [Mercury (2+)],MIC (ppm of metal ion) Alone,[2],50 ppm
same,MIC (ppm of metal ion) +4 ppm ZPT,[2],5 ppm
O=S(=O)([O-])[O-].[Ag+].[Ag+] [Ag2SO4],"Plate Area Colonized, 0 Hours",[1]; [5],3.97E+06 mm2
same,"Plate Area Colonized, 24 Hours",[1]; [5],7.46E+05 mm2
same,"Plate Area Colonized, 48 Hours",[1]; [5],1.22E+05 mm2
same,"Plate Area Colonized, 0 Hours",[1]; [6],3.97E+06 mm2
same,"Plate Area Colonized, 24 Hours",[1]; [6],1.65E+06 mm2
same,"Plate Area Colonized, 48 Hours",[1]; [6],1.00E+00 mm2
O=S(=O)([O-])[O-].[Na+].[Na+] [Na2SO4],"Plate Area Colonized, 0 Hours",[1]; [5],3.97E+06 mm2
same,"Plate Area Colonized, 24 Hours",[1]; [5],3.75E+07 mm2
same,"Plate Area Colonized, 48 Hours",[1]; [5],3.42E+06 mm2
same,"Plate Area Colonized, 0 Hours",[1]; [6],3.97E+06 mm2
same,"Plate Area Colonized, 24 Hours",[1]; [6],1.44E+07 mm2
same,"Plate Area Colonized, 48 Hours",[1]; [6],2.95E+06 mm2
"[O-]n1ccccc1=S.[O-]n1ccccc1=S.[Zn+2] [ZPT, zinc salt of 1-hydroxy-2-pyridinethione, reference compound]","Plate Area Colonized, 0 Hours","[1]; Table 2(a), 10 ppm",3.97E+06 mm2
same,"Plate Area Colonized, 24 Hours","[1]; Table 2(a), 10 ppm",2.52E+05 mm2
same,"Plate Area Colonized, 48 Hours","[1]; Table 2(a), 10 ppm",2.30E+03 mm2
same,"Plate Area Colonized, 0 Hours","[1]; Table 2(b), 10 ppm",2.12E+07 mm2
same,"Plate Area Colonized, 4 Hours","[1]; Table 2(b), 10 ppm",3.49E+07 mm2
same,"Plate Area Colonized, 24 Hours","[1]; Table 2(b), 10 ppm",6.44E+06 mm2
same,"Plate Area Colonized, 48 Hours","[1]; Table 2(b), 10 ppm",4.86E+05 mm2
[Cu+2] [Copper (2+)],MIC (ppm of metal ion) Alone,[2],5000 ppm
same,MIC (ppm of metal ion) +0.5 ppm ZPT,[2],5000 ppm
same,MIC (ppm of metal ion) +2 ppm ZPT,[2],<0.5 ppm
same,MIC (ppm of metal ion) +4 ppm ZPT,[2],<0.005 ppm
same,MIC (ppm of metal ion) +4 ppm ZPT,[2]; listed as copper ions,less than 0.005 ppm
[Cl][Bi]([Cl])[Cl] [BiCl3],"Plate Area Colonized, 0 Hours",[1]; [5],3.97E+06 mm2
same,"Plate Area Colonized, 24 Hours",[1]; [5],1.96E+07 mm2
same,"Plate Area Colonized, 48 Hours",[1]; [5],3.03E+06 mm2
same,"Plate Area Colonized, 0 Hours",[1]; [6],3.97E+06 mm2
same,"Plate Area Colonized, 24 Hours",[1]; [6],1.11E+06 mm2
same,"Plate Area Colonized, 48 Hours",[1]; [6],3.42E+05 mm2
[Zn+2] [Zinc (2+)],MIC (ppm of metal ion) Alone,[2],5000 ppm
same,MIC (ppm of metal ion) +0.5 ppm ZPT,[2],500 ppm
same,MIC (ppm of metal ion) +2 ppm ZPT,[2],50 ppm
same,MIC (ppm of metal ion) +4 ppm ZPT,[2],5 ppm
O=S(=O)([O-])[O-].[Mg+2] [MgSO4],"Plate Area Colonized, 0 Hours",[1]; [5],3.97E+06 mm2
same,"Plate Area Colonized, 24 Hours",[1]; [5],4.35E+06 mm2
same,"Plate Area Colonized, 48 Hours",[1]; [5],9.68E+06 mm2
same,"Plate Area Colonized, 0 Hours",[1]; [6],3.97E+06 mm2
same,"Plate Area Colonized, 24 Hours",[1]; [6],1.81E+07 mm2
same,"Plate Area Colonized, 48 Hours",[1]; [6],9.50E+06 mm2
